PMC2803217 (Journal of Experimental Botany, 2009)

How the values were obtained:
[1] = target: T1, AtPMT1 (Arabidopsis thaliana, UniProt Q9XIH7); assay: competition of […]-sorbitol uptake in transgenic yeast; assay type: cell-based; settings: pH 5.0
T1 sequence (Q9XIH7 1-511): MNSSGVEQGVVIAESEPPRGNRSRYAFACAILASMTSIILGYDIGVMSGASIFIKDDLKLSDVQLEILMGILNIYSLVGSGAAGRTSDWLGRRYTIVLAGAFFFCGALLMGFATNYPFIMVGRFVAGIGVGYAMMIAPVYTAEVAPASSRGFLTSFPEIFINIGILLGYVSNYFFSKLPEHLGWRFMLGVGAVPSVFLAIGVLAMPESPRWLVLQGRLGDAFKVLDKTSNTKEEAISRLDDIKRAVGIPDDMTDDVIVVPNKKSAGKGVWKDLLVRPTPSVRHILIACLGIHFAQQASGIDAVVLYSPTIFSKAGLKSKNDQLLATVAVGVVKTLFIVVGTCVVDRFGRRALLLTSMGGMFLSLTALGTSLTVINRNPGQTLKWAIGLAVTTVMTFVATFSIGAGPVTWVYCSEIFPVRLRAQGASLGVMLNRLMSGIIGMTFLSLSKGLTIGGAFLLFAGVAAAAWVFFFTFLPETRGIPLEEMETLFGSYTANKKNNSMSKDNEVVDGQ

[2] = target: T2, AtPMT2 (Arabidopsis thaliana, UniProt Q9XIH6); assay: as above; assay type: cell-based; settings: pH 5.0
T2 sequence (Q9XIH6 1-511): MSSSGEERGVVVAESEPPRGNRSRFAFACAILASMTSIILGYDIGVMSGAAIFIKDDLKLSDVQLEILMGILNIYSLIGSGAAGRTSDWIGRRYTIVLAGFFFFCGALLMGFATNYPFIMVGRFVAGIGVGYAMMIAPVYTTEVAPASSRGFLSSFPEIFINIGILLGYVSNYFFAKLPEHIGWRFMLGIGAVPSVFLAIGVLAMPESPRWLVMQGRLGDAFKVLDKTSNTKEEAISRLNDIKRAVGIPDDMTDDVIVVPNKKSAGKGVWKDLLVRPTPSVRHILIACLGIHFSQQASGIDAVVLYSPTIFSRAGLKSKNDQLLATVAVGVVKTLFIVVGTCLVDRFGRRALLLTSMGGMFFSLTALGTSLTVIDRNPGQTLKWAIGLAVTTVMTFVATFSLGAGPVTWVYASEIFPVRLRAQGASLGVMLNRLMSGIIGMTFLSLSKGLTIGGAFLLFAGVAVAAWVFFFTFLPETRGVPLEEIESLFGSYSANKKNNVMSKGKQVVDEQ

[3] = substrate: OC[C@@H](O)[C@H](O)[C@@H](O)CO; assay: cells, lysate or membranes; settings: 50 mM sodium phosphate pH 5.0, H+ symport
[4] = substrate: OC[C@@H](O)[C@@H](O)[C@H](O)[C@@H](O)CO; assay: cells, lysate or membranes; settings: 50 mM sodium phosphate pH 5.0, H+ symport

## OC[C@@H](O)[C@@H](O)CO [erythritol]
[1]
  uptake of 0.1 mM 14C-sorbitol with 10 mM competitor: In both strains, uptake of sorbitol was strongly reduced in the presence of xylitol
[2]; 10 mM competitor
  uptake of 0.1 mM 14C-sorbitol with 10 mM competitor: In both strains, uptake of sorbitol was strongly reduced in the presence of xylitol

## OC[C@@H](O)[C@@H](O)[C@H](O)[C@@H](O)CO [sorbitol]
[2]; 10 mM unlabelled sorbitol
  uptake of 0.1 mM 14C-sorbitol with 10 mM competitor: sorbitol was transported by both cell lines

B1: AtPMT1 (Arabidopsis thaliana) (protein)
chain: T1 sequence (Q9XIH7 1-511)
[3]
  Km: 140 ± 20 µM
[4]
  Km: 770 ± 120 µM

B2: AtPMT2 (Arabidopsis thaliana) (protein)
chain: T2 sequence (Q9XIH6 1-511)
[3]
  Km: 180 ± 10 µM
